Data taken from patent publication US10288629B1, “Method of assessing growth hormone deficiency in humans by a macimorelin containing composition” (AEterna Zentaris, Inc., priority 2017, dated 2019).
Each block holds one compound with its values, some of them ahead of it.

Columns and labels:
[1] = system: GH level; assay: agreement of the Macimorelin GHST with the ITT for diagnosis of AGHD; type: in vivo, human; details: cut-off 2.8 ng/mL macimorelin, 5.1 ng/mL ITT, N = 139
Description: The study protocol allowed for a 5 minutes time window for each of said time points, meaning that a blood sample collected for example within 25 to 35 min after GH provocation agent administration was […] collected for the 30 min time point.

[2] = system: GH level; assay: repeatability of the macimorelin GHST; type: in vivo, human; details: below or above cut-off point
Source text: To assess the repeatability of the macimorelin GHST, 33 subjects with a valid first macimorelin test (core study) underwent a second macimorelin test (repeatability study extension).

[3] = parameters: species or system human; details: in vivo
[4] = system: peak GH concentrations; assay: peak GH response in the macimorelin GHST and ITT; type: in vivo, human; details: all AGHD likelihood groups A-D; N=139; FIG. 5
Description: Blood samples were collected before and 30, 45, 60, and 90 minutes after administration of macimorelin and before and 15, 30, 45, 60, 90 and 120 minutes after administration of insulin to the efficacy data set subjects and GH levels were determined for all samples.

[5] = molecular target: T1, human GHS receptor (Homo sapiens, UniProt Q92847); details: membrane preparations from human hypothalamus and pituitary gland; compared with ghrelin; cited from earlier work
T1 construct: membrane preparations containing the GHS-receptor derived from human hypothalamus and pituitary gland; from tissue; host or cells: human hypothalamus and pituitary gland membranes
T1 sequence (Q92847 whole entry): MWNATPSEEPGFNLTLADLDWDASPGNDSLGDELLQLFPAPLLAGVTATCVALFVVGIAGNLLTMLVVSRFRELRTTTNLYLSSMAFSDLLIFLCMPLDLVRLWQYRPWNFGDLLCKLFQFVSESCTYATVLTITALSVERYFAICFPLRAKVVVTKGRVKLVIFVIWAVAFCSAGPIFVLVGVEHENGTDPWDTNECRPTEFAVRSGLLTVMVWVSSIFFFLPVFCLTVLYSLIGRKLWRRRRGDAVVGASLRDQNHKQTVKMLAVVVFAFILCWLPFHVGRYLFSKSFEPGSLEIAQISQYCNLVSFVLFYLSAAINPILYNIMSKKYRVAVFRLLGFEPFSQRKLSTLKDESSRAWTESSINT

[6] = macimorelin sample: peak of 0-90 min
[7] = macimorelin sample: peak of 45 & 60 min
[8] = macimorelin sample: peak of 60 & 90 min

diarrhea ([3]; human): 1.9%
dizziness ([3]; human): 3.9%
dysgeusia ([3]; human): 4.5%
fatigue ([3]; human): 3.9%
feeling hot ([3]; human): 1.3%
headache ([3]; human): 3.9%
hunger ([3]; human): 3.2%
hyperhidrosis ([3]; human): 1.3%
nasopharyngitis ([3]; human): 1.3%
nausea ([3]; human): 3.2%
sinus bradycardia ([3]; human): 1.3%
upper respiratory tract infection ([3]; human): 1.9%
Compound: CC(C)(N)C(=O)N[C@H](Cc1c[nH]c2ccccc12)C(=O)N[C@H](Cc1c[nH]c2ccccc12)NC=O [Macimorelin, macimorelin]
Negative % agreement ([1]; macimorelin sample: 30 min): 73.85%
Positive % agreement ([1]; macimorelin sample: 30 min): 82.43%
Total % agreement ([1]; macimorelin sample: 30 min): 78.42%
Negative % agreement ([1]; macimorelin sample: 45 min): 86.15%
Positive % agreement ([1]; macimorelin sample: 45 min): 78.38%
Total % agreement ([1]; macimorelin sample: 45 min): 82.01%
Negative % agreement ([1]; macimorelin sample: 60 min): 95.31%
Positive % agreement ([1]; macimorelin sample: 60 min): 81.08%
Total % agreement ([1]; macimorelin sample: 60 min): 87.68%
Negative % agreement ([1]; macimorelin sample: 90 min): 84.62%
Positive % agreement ([1]; macimorelin sample: 90 min): 86.49%
Total % agreement ([1]; macimorelin sample: 90 min): 85.61%
Negative % agreement [1, 6]: 95.38%
Positive % agreement [1, 6]: 74.32%
Total % agreement [1, 6]: 84.17%
Negative % agreement [1, 7]: 95.38%
Positive % agreement [1, 7]: 75.68%
Total % agreement [1, 7]: 84.89%
Negative % agreement [1, 8]: 95.38%
Positive % agreement [1, 8]: 78.38%
Total % agreement [1, 8]: 86.33%
Negative % agreement ([1]; macimorelin sample: pre-dose): 13.85%
Positive % agreement ([1]; macimorelin sample: pre-dose): 98.65%
Total % agreement ([1]; macimorelin sample: pre-dose): 58.99%
result of second macimorelin test matching result of first test ([2]; 33 subjects): 94%
subjects with reproducible test outcome (number) ([2]; out of 33 subjects): 31
peak GH levels in the macimorelin GHST as compared to the ITT [4]: higher peak GH levels
binding potency to the human GHS receptor [5]: comparable to that of its natural ligand, ghrelin

Compound: ITT: insulin tolerance test: intravenous administration of insulin to induce hypoglycaemia, which leads to GH release; comparator GHST [reference compound]
Any TEAE (likely or possible related), % of subjects [3]: 94.9%
Any TEAE (likely or possible related), Frequency (number of subjects) [3]: 149
Any TEAE (likely or possible related), N AEs [3]: 710
Any TEAE, % of subjects [3]: 96.2%
Any TEAE, N AEs (number of all AEs) [3]: 761
Any test emergent severe AE, % of subjects [3]: 7%
severe TEAE asthenia, number of subjects [3]: 4
severe TEAE hunger, number of subjects [3]: 3
severe TEAE hyperhidrosis, number of subjects [3]: 5
severe TEAE nervousness, number of subjects [3]: 2
severe TEAE somnolence, number of subjects [3]: 5
severe TEAE tremor, % of subjects [3]: 0.6%
severe TEAE tremor, number of subjects [3]: 1
